Source: publication PMC6333442, “Conserved allosteric pathways for activation of TRPV3 revealed through engineering vanilloid-sensitivity” (eLife, 2019)

Assays:
[1] = tested on: TRPV3-6M + V587L, A606V, F625L, F656I or F666Y; assay: Two-electrode voltage clamp, TRPV3-6M with individual pore mutations (strong RTx responders); assay type: cell-based, mouse; settings: RTx 100 nM, room temperature; magnitude very similar to 2-APB 3 mM
Protocol: (§1) All channel constructs were expressed in Xenopus laevis oocytes and studied using the two-electrode voltage clamp technique (TEVC) following 1–4 days of incubation after cRNA injection. The animal care and experimental procedures were performed in accordance with the Guide for the Care and Use of Laboratory Animals and were approved by the Animal Care and Use Committee of the National Institute of Neurological Disorders and Stroke (Animal protocol number 1253–17). Oocytes were removed surgically and incubated with agitation for 1 hr in a solution containing (in mM) 82.5 NaCl, 2.5 KCl, 1 MgCl2, 5 HEPES, pH 7.6 (with NaOH), and collagenase (2 mg/ml; Worthington Biochemical, Lakewood, NJ). Defolliculated oocytes were injected with cRNA for each of the constructs and incubated at 17°C in a solution containing (in mM) 96 NaCl, 2 KCl, 1 MgCl2, 1.8 CaCl2, 5 HEPES, pH 7.6 (with NaOH), and gentamicin (50 μg/ml, GIBCO-BRL, Gaithersburg, MD). Oocyte membrane voltage was controlled using an OC-725C oocyte clamp (Warner Instruments, Hamden, CT). Data were filtered at 1–3 kHz and digitized at 20 kHz using pClamp software (Molecular Devices, Sunnyvale, CA) and a Digidata 1440A digitizer (Axon Instruments). Microelectrode resistances were 0.1–1 MΩ when filled with 3 M KCl. For recording TRP channel currents, the external recording solution contained (in mM) 100 KCl, 10 HEPES, pH 7.6 (with KOH). […]

[2] = tested on: TRPV3-6M + I595L, K611D, L635F, L639M or Y650F; assay: Two-electrode voltage clamp, TRPV3-6M with individual pore mutations (weak RTx responders); assay type: cell-based, mouse; settings: RTx 100 nM, room temperature; smaller than responses to 2-APB
Protocol: as §1

[3] = target: T1, rat TRPV2-4M (Rattus norvegicus, UniProt Q9WUD2, F472S/L507M/L510T/Q530E); set-up: method as in Zhang et al., 2016; settings: ref Zhang et al., 2016; cited from earlier work
T1 construct: expressed in transfected cells; host or cells: Xenopus laevis oocytes
T1 sequence (Q9WUD2 1-761 F472S/L507M/L510T/Q530E): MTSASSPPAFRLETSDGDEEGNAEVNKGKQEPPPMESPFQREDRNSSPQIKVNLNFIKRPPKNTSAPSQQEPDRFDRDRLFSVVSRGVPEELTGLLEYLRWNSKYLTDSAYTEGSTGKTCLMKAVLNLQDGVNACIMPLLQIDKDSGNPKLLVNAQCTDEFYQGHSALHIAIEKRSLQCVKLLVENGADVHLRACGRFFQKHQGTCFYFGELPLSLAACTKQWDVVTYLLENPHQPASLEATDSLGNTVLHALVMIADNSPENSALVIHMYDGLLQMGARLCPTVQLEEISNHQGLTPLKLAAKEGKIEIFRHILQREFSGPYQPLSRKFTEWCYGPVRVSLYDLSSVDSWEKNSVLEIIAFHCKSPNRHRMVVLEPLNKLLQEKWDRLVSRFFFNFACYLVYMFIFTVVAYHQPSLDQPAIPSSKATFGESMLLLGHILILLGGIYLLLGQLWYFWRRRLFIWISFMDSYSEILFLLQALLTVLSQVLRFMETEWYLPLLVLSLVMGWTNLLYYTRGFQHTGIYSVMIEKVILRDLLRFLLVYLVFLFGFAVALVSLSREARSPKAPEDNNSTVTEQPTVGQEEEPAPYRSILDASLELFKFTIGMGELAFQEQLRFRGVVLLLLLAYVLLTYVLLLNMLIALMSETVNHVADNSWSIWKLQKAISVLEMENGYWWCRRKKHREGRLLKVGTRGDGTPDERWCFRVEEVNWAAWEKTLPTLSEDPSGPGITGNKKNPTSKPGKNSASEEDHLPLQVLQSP

[4] = tested on: TRPV3-4M/V2P; assay: Two-electrode voltage clamp, TRPV3-4M/V2P chimera in oocytes; assay type: cell-based, mouse; settings: RTx 100 nM, 2-APB 3 mM, room temperature, ±60 mV
Protocol: as §1

[5] = tested on: TRPV3 single point mutants (V587L, F625L, F656I and F666Y); settings: 2-APB 3 mM, room temperature
Protocol: All channel constructs were expressed in Xenopus laevis oocytes and studied using the two-electrode voltage clamp technique (TEVC) following 1–4 days of incubation after cRNA injection. The animal care and experimental procedures were performed in accordance with the Guide for the Care and Use of Laboratory Animals and were approved by the Animal Care and Use Committee of the National Institute of Neurological Disorders and Stroke (Animal protocol number 1253–17). Oocytes were removed surgically and incubated with agitation for 1 hr in a solution containing (in mM) 82.5 NaCl, 2.5 KCl, 1 MgCl2, 5 HEPES, pH 7.6 (with NaOH), and collagenase (2 mg/ml; Worthington Biochemical, Lakewood, NJ). […]
For temperature-activation experiments, calcium-activated chloride currents were minimized by using calcium-free solution containing 30 µM Caccinh-A01 and recording at negative membrane voltages. Heat stimuli were achieved by passing the external recording solution through glass capillary spirals immersed in a water bath maintained at about 70°C, and recordings were performed during constant perfusion with temperature measured using a thermistor (TA-29, Warner Instruments) located close to the cell. […] The mean I vs T relations were calculated by automatically binning each of the recordings in temperature intervals of 2°C, and averaging a single data point within each interval per cell. […]

Structure (SMILES)	channel activation (current response) [1]	channel activation (current response) [2]	saturating concentration of RTx [3] [nM]	channel activation (current response) [4]	channel activation (current response) [5]
C=C(C)[C@]12C[C@@H](C)[C@@]34O[C@](Cc5ccccc5)(O[C@@H]1[C@@H]3C=C(COC(=O)Cc1ccc(O)c(OC)c1)C[C@]1(O)C(=O)C(C)=C[C@@H]41)O2 [RTx, resiniferatoxin]	robust RTx-activated currents	detectable responses	100	–	–
NCCOB(c1ccccc1)c1ccccc1 [2-APB, 2-aminoethoxydiphenyl borate]	–	–	–	could be activated	strong responses
